The subject of data set [1] is HCT 116 cells. Description: cells. To be noted: for GI50: read-out: HCT116 GI50; for CC50: read-out: HCT116 LC50. How it is done:
(§1) Experimental drugs are screened for anti-cancer activity in three cell lines for their GI50, TGI and LC50 values (using five concentrations for each compound). The cell lines are maintained in DMEM containing 10% fetal bovine serum. 96 well micro titer plates are inoculated with cells in 100 μL for 24 h at 37° C., 5% CO2, 95% air and 100% relative humidity. 5000 HCT 116 cells/well, 5000 NCIH 460 cells/well and 5000 U251 cells/well are plated. A separate plate with these cell lines is also inoculated to determine cell viability before the addition of the compounds (T0) (See Table I).
(§2) Following 24-hour incubation, experimental drugs are added to the 96 well plates. Each plate contains one of the above cell lines and the following in triplicate: five different concentrations (0.01, 0.1, 1, 10 and 100 μM) of four different compounds, appropriate dilutions of a cytotoxic standard and control (untreated) wells. Compounds are dissolved in DMSO to make 20 mM stock solutions on the day of drug addition and frozen at −20° C. Serial dilutions of these 20 mM stock solutions are made in complete growth medium such that 100 μL of these drug solutions in medium, of final concentrations equaling 0.01, 0.1, 1, 10 and 100 μM can be added to the cells in triplicate. […] (See Table I).
(§3) For T0 measurement, 24 hours after seeding the cells, 10 μL of 3-(4,5-Dimethyl-2-thiazolyl)-2,5-diphenyl-2H-tetrazolium (MTT) solution per well is added and incubation carried out for 3 hours at 37° C., 5% CO2, 95% air and 100% relative humidity, protected from light. Cells incubated with compounds for 48 hours are treated similarly except with the addition of 20 μL MTT solution per well and a subsequent incubation under the same conditions. After 3 hours of MTT incubation, well contents are aspirated carefully followed by addition of 150 μL DMSO per well. Plates are agitated to ensure solution of the formazan crystals in DMSO and absorbance read at 570 nm. (See Table I).
(§4) Percent growth is calculated for each compound's concentration relative to the control and zero measurement wells (T0; viability right before compound addition).
(§5) If a test well's O.D. value is lower than the T0 measurement for that cell line, then, % Growth=(test−zero)/zero×100

Data set [2] deals with MDAMB231/U251. Description: cells. To be noted: 48 h; for GI50: read-out: MDAMB231/U251 GI50. As to the method: as §1, §2, §3, §4, §5
The test system of data set [3] is NCIH 460 cells. Kind of data set: cells. The note with it: for GI50: read-out: NCIH460 GI50; for CC50: read-out: NCIH460 LC50. As to the method: as §1, §2, §3, §4, §5
Data set [4] concerns NCIH460, HCT116, MDAMB231/U251. Description: Anti-cancer screen, mean GI50 over the cell lines. The data set is classed as cell-based. To be noted: mean over the three cell lines; no unit in table. How it is done:
as §1, §2, §3
Percent growth is calculated for each compound's concentration relative to the control and zero measurement wells (T0; viability right before compound addition). […]

Data set [5] concerns HDAC activity (Mouse Liver Extract). Kind of data set: Histone Deacetylase (HDAC) Inhibition Assay using Boc-Lys (Ac)-AMC Substrate. The data set is classed as biochemical. The note with it: mouse liver enzyme; for HDAC Inhibition 1 μM: inhibitor at 1 μM; for HDAC Inhibition 1 μM / HDAC Inhibition 10 μM: in % (unit assumed); for HDAC Inhibition 10 μM: inhibitor at 10 μM. How it is done:
Histone Deacetylase (HDAC) Inhibition Assay using Boc-Lys (Ac)-AMC Substrate: Inhibition of HDAC has been implicated to modulate transcription and to induce apoptosis or differentiation in cancer cells. The fluorometric assay provides a fast and fluorescence based method that eliminates radioactivity, extractions or chromatography, as used in traditional assays. The assay based on two steps. First, the HDAC fluorometric substrate, which comprises an acetylated lysine side chain, is incubated with a sample containing HDAC activity (Mouse Liver Extract). Deacetylation of the substrate sensitizes the substrate, in the second step; treatment with the Trypsin stop solution produces a fluorophore that can be easily analyzed using fluorescence plate reader.
Assay was done in 96 well black microplate and total volume of the assay is 100 ul. Mouse liver enzyme is diluted 1:6 with HDAC buffer. Enzyme cocktail made of 10 ul of diluted enzyme and 30 ul of HDAC buffer. 40 ul of enzyme cocktail dispensed into each well. 10 ul of different concentrations of inhibitor added in to each well, except enzyme control well. Preincubated the plate at 30° C. for 5 minutes. The HDAC reaction is started by adding 50 ul of HDAC substrate (Boc-Lys (Ac)-AMC Substrate) solution. Incubated the plate at 30° C. for 30 minutes. Adding 100 ul of Trypsin stop solution stops the reaction. The plate is incubated again at 30° C. for 20-30 minutes. The release of AMC is monitored by measuring the fluorescence at excitation wavelength of 365 or 360 nm and emission wavelength of 440 or 460 nm. Buffer and substrate alone kept for blank subtraction. (Dennis Wegener et al, Anal. Biochem, 321, 2003, 202-208).

The test system of data set [6] is MDAMB231/U251. Kind of data set: cells. To be noted: 48 h, read-out: MDAMB231/U251 LC50.
Where [7] appears, read: HCT116, MTT, 48 h, tested at 0.01-100 μM, no unit in table.
[8] abbreviates: MDAMB231/U251, MTT, tested at 0.01-100 μM, no unit in table.
[9] abbreviates: NCIH460, MTT, 48 h, tested at 0.01-100 μM, no unit in table.

Where two headings read alike, the source gives them in different places.

The IC50 is the concentration that inhibits the measured activity by half. High values mean weaker potency in that assay, low ones greater potency in that assay. `COc1cc(/C=C(\C(=O)NCCCCCC(=O)NO)c2ccc(F)cc2)cc(OC)c1` [Example 1, (2Z)-3-(3,5-Dimethoxyphenyl)-2-(4-fluorophenyl)-N-[6-(hydroxyamino)-6-oxohexyl]acrylamide]: the GI50 in data set [1] (Homo sapiens, HCT-116, 48 h) is 5 µM; in data set [2], 0.1 µM; in data set [3] (Homo sapiens, NCI-H460, 48 h) it was over 100 µM; in data set [4], 2.6 µM. Moreover, the CC50 in data set [1] (Homo sapiens, HCT-116, 48 h) is 70 µM; in data set [3] (Homo sapiens, NCI-H460, 48 h), over 100 µM; in data set [6] it was 75 µM. Besides, the “HDAC Inhibition 1 μM” value in data set [5] is 53.76. Besides, the “HDAC Inhibition 10 μM” value in data set [5] was 66.42. The molecule further came in with a half-inhibitory concentration (IC50) in data set [5] of 0.22 µM.

As for `COc1cc(/C=C(\C(=O)NCCCCCC(=O)Nc2ccccc2O)c2ccc(F)cc2)cc(OC)c1` [Example 2], the GI50 came out at 30 µM in data set [1] (Homo sapiens, HCT-116, 48 h); 30 µM in data set [2]; 27 µM in data set [3] (Homo sapiens, NCI-H460, 48 h); 29 µM in data set [4]. The CC50 in data set [1] (Homo sapiens, HCT-116, 48 h) is 73 µM; in data set [3] (Homo sapiens, NCI-H460, 48 h), 56 µM; in data set [6] it was over 100 µM. Further, in data set [5], the “HDAC Inhibition 1 μM” value turned out to be 7.73. The “HDAC Inhibition 10 μM” value in data set [5] is 10.46.

`COc1cc(/C=C(\C(=O)NCCCCCC(=O)Nc2cccc(O)c2)c2ccc(F)cc2)cc(OC)c1` [Example 3]: the GI50 in data set [1] (Homo sapiens, HCT-116, 48 h) came to 40 µM; in data set [2] it was 73 µM; in data set [3] (Homo sapiens, NCI-H460, 48 h), 50 µM; in data set [4] it was 54.3 µM. Moreover, the CC50 was over 100 µM in data set [1] (Homo sapiens, HCT-116, 48 h); over 100 µM in data set [3] (Homo sapiens, NCI-H460, 48 h); over 100 µM in data set [6]. Besides, in data set [5], the “HDAC Inhibition 1 μM” value was −6.41. The “HDAC Inhibition 10 μM” value in data set [5] is −6.45.

`COc1cc(/C=C(\C(=O)NCCCCCC(=O)Nc2ccccc2N)c2ccc(O)cc2)cc(OC)c1` [Example 4]: the GI50 in data set [1] (Homo sapiens, HCT-116, 48 h) is 9.4 µM; in data set [2], 55 µM; in data set [3] (Homo sapiens, NCI-H460, 48 h), 45 µM; in data set [4], 36 µM. The CC50 in data set [1] (Homo sapiens, HCT-116, 48 h) was 80 µM; in data set [3] (Homo sapiens, NCI-H460, 48 h), over 100 µM; in data set [6], over 100 µM. Moreover, in data set [5], the “HDAC Inhibition 1 μM” value was found to be 16.9. Also, the “HDAC Inhibition 10 μM” value in data set [5] is listed as 24.

Take `COc1cc(/C=C(\C(=O)NCCCCCC(=O)Nc2ccccc2O)c2ccc(O)cc2)cc(OC)c1` [Example 5]: the GI50 amounted to 35 µM in data set [1] (Homo sapiens, HCT-116, 48 h); 65 µM in data set [2]; 50 µM in data set [3] (Homo sapiens, NCI-H460, 48 h); 50 µM in data set [4]. In addition, the CC50 in data set [1] (Homo sapiens, HCT-116, 48 h) stood at 90 µM; in data set [3] (Homo sapiens, NCI-H460, 48 h), 100 µM; in data set [6] it was 92 µM. Also, the “HDAC Inhibition 1 μM” value in data set [5] is 19.6. The “HDAC Inhibition 10 μM” value in data set [5] worked out at 35.3.

Turning to `COc1cc(/C=C(\C(=O)NCCCCCC(=O)Nc2ccccc2O)c2ccc(O)cc2)cc(OC)c1OC` [Example 6], the GI50 stood at 38 µM in data set [1] (Homo sapiens, HCT-116, 48 h); 60 µM in data set [2]; 44 µM in data set [3] (Homo sapiens, NCI-H460, 48 h); 47 µM in data set [4]. Also, the CC50 in data set [1] (Homo sapiens, HCT-116, 48 h) was 91 µM; in data set [3] (Homo sapiens, NCI-H460, 48 h) it was 85 µM; in data set [6], over 100 µM. Moreover, the “HDAC Inhibition 1 μM” value in data set [5] is reported as 15.9. In addition, the “HDAC Inhibition 10 μM” value in data set [5] amounted to 36.1.

For the molecule `O=C(CCCCCNC(=O)/C(=C\c1cc(F)cc(F)c1F)c1ccc([N+](=O)[O-])cc1)NO` [Example 27, (2Z)-3-(2,3,5-Trifluorophenyl)-2-(4-nitrophenyl)-N-[6-(hydroxyamino)-6-oxohexyl]acrylamide], the GI50 is 7 µM in data set [1] (Homo sapiens, HCT-116, 48 h); 7.5 µM in data set [2]; 30 µM in data set [3] (Homo sapiens, NCI-H460, 48 h); 14.8 µM in data set [4]. In addition, the CC50 was over 100 µM in data set [1] (Homo sapiens, HCT-116, 48 h); 96 µM in data set [3] (Homo sapiens, NCI-H460, 48 h); 82 µM in data set [6].

For `COc1ccc(/C=C(\C(=O)NCCCCCC(=O)NO)c2ccccc2)cc1` [Example 29, (2Z)-3-(4-Methoxyphenyl)-2-(phenyl)-N-[6-(hydroxyamino)-6-oxohexyl]acrylamide], the GI50 in data set [1] (Homo sapiens, HCT-116, 48 h) was determined as 5 µM; in data set [2], 6 µM; in data set [3] (Homo sapiens, NCI-H460, 48 h) it was 28 µM; in data set [4] it was 13 µM. In addition, the CC50 is 78 µM in data set [1] (Homo sapiens, HCT-116, 48 h); 89 µM in data set [3] (Homo sapiens, NCI-H460, 48 h); 90 µM in data set [6].

As for `O=C(CCCCCNC(=O)/C(=C\c1ccc(F)c(F)c1)c1ccc(F)cc1)Nc1nccs1` [Example 36], the GI50 in data set [1] (Homo sapiens, HCT-116, 48 h) is over 100 µM; in data set [2], 0.2 µM; in data set [3] (Homo sapiens, NCI-H460, 48 h), 2 µM; in data set [4] it was 1.1 µM. Also, the CC50 in data set [1] (Homo sapiens, HCT-116, 48 h) was over 100 µM; in data set [3] (Homo sapiens, NCI-H460, 48 h), over 100 µM; in data set [6], over 100 µM.

Take `Cc1cc(/C=C(\C(=O)NCCCCCC(=O)NO)c2ccc(F)cc2)ccc1F` [Example 45, (2Z)-3-(4-Fluoro-3-methylphenyl)-2-(4-fluorophenyl)-N-[6-(hydroxyamino)-6-oxohexyl]acrylamide]: the GI50 in data set [1] (Homo sapiens, HCT-116, 48 h) is 6.8 µM; in data set [2] it was 5 µM; in data set [3] (Homo sapiens, NCI-H460, 48 h), 16 µM; in data set [4], 9.3 µM. Also, the CC50 in data set [1] (Homo sapiens, HCT-116, 48 h) was 73 µM; in data set [3] (Homo sapiens, NCI-H460, 48 h), 89 µM; in data set [6], over 100 µM.

Consider `CSc1ccc(/C=C(\C(=O)NCCCCCC(=O)NOCc2ccccc2)c2ccc(F)cc2)cc1` [Example 51, (2Z)-3-(4-Thiomethylphenyl)-2-(4-fluorophenyl)-N-[6-(O-benzyl hydroxyamino)-6-oxohexyl]acrylamide], for which the “HCT116 TGI” value in data set [1] (setting [7]) is listed as 65. The GI50 in data set [1] (setting [7]) was 10 µM; in data set [2] (setting [8]), 9.6 µM; in data set [3] (setting [9]) it was 30 µM; in data set [4], 16.5 µM. Further, the CC50 was 84 µM in data set [1] (setting [7]); 86 µM in data set [2] (read-out: MDAMB231/U251 LC50, MDAMB231/U251, MTT, tested at 0.01-100 μM, no unit in table); over 100 µM in data set [3] (setting [9]). Moreover, the “MDAMB231/U251 TGI” value in data set [2] (setting [8]) is recorded as 35. For the same molecule, in data set [3] (setting [9]), the “NCIH460 TGI” value is given as 80.

Source of the values: patent US8263044B2, “Stilbene like compounds as novel HDAC inhibitors” (Orchid Research Laboratories Limited, priority 2005, dated 2012).
